# Experimental data from ChEMBL document CHEMBL3301546, “MMV Malaria Box yeast growth screening”.
# What was measured:
# Format in all cases: functional
# Saccharomyces cerevisiae [1] = experiment: (§1) MMV: Growth assays were conducted using the prototrophic S. cerevisiae strain JHY222. Each MMV compound (0.1 mM) was tested in rich media containing dextrose as a carbon source (Yeast Extract, Peptone, Dextrose; YPD). The growth rate in the presence of each MMV compound was calculated as follows: (i) the first 10 OD readings were averaged and subtracted from all OD readings of the corresponding curve to set the baseline of the growth curve to zero, and (ii) the area under the curve (AUC) was then calculated as the sum of all OD readings. […] A relative growth value was calculated as follows: AUC(DRUG) - AUC(DMSO)/AUC(DMSO); where AUC(DMSO) represents growth measured in a DMSO control well that was on the same microtiter plate of the drug-treated culture.
# Saccharomyces cerevisiae [2] = experiment: as §1, with “minimal” for “rich”, “Nitrogen Base,” for “Extract, Peptone,”, “YNBD).” for “YPD).”
# Saccharomyces cerevisiae [3] = experiment: as §1, with “minimal” for “rich”, “ethanol and glycerol” for “dextrose”, “as” for “as a”, “sources” for “source”, “Nitrogen Base, Ethanol, Glycerol; YNBEG).” for “Extract, Peptone, Dextrose; YPD).”
smiles,measurement,setting,value
O=C(Nc1ccccc1O)c1ccc(Oc2cccc(C(=O)Nc3ccccc3O)c2)cc1,Relative Growth,Saccharomyces cerevisiae [1],-0.023
same,Relative Growth,Saccharomyces cerevisiae [2],0.0291
same,Relative Growth,Saccharomyces cerevisiae [3],-0.0198
Cl.N=c1n(CCN2CCCCC2)c2ccccc2n1CC(O)c1cccc(Br)c1 (stereo not given),Relative Growth,Saccharomyces cerevisiae [1],-0.0788
same,Relative Growth,Saccharomyces cerevisiae [2],-0.2329
same,Relative Growth,Saccharomyces cerevisiae [3],-0.5142
O=C(NCc1ccco1)C1CCN(S(=O)(=O)c2ccc(Cl)cc2)CC1,Relative Growth,Saccharomyces cerevisiae [1],-0.0768
same,Relative Growth,Saccharomyces cerevisiae [2],-0.224
same,Relative Growth,Saccharomyces cerevisiae [3],-0.0245
COc1ccc(C(=O)Nc2ccc3nc(N4CCCCC4)cc(C)c3c2)cc1OC,Relative Growth,Saccharomyces cerevisiae [1],-0.0828
same,Relative Growth,Saccharomyces cerevisiae [2],-0.1419
same,Relative Growth,Saccharomyces cerevisiae [3],-0.4538
COc1ccc(N2CCN(C(CNC(=O)C3CCCCC3)c3ccc4c(c3)OCO4)CC2)cc1 (stereo not given),Relative Growth,Saccharomyces cerevisiae [1],-0.0299
same,Relative Growth,Saccharomyces cerevisiae [2],-0.0986
same,Relative Growth,Saccharomyces cerevisiae [3],-0.124
FC(F)(F)c1ccc(Nc2nnnc3ccccc23)cc1,Relative Growth,Saccharomyces cerevisiae [1],-0.97
same,Relative Growth,Saccharomyces cerevisiae [2],-0.0492
same,Relative Growth,Saccharomyces cerevisiae [3],0.0852
CCC(C)NCC(O)(c1ccc(Cl)cc1)c1ccc(Cl)cc1 (stereo not given),Relative Growth,Saccharomyces cerevisiae [1],0.0173
same,Relative Growth,Saccharomyces cerevisiae [2],0.042
same,Relative Growth,Saccharomyces cerevisiae [3],-0.0906
COc1cccc(NC(=O)Cn2c(C)c(C#N)c3ccccc32)c1,Relative Growth,Saccharomyces cerevisiae [1],-0.9399
same,Relative Growth,Saccharomyces cerevisiae [2],-1.0078
same,Relative Growth,Saccharomyces cerevisiae [3],-1.0064
Cc1[nH]c(-c2ccc(F)cc2)cc1C(=O)NC1CCN(Cc2ccccc2)CC1,Relative Growth,Saccharomyces cerevisiae [1],0.0962
same,Relative Growth,Saccharomyces cerevisiae [2],0.023
same,Relative Growth,Saccharomyces cerevisiae [3],0.2181
COc1ccc(CCN2CCC(CN(C)Cc3cnn(-c4ccccc4)c3)CC2)cc1,Relative Growth,Saccharomyces cerevisiae [1],0.0613
same,Relative Growth,Saccharomyces cerevisiae [2],-0.2117
same,Relative Growth,Saccharomyces cerevisiae [3],-0.844
COCCNC(=O)c1ccc(OC2CCN(Cc3ccc(F)c(F)c3)CC2)c(Cl)c1,Relative Growth,Saccharomyces cerevisiae [1],0.1615
same,Relative Growth,Saccharomyces cerevisiae [2],-0.0136
same,Relative Growth,Saccharomyces cerevisiae [3],0.0235
O=C(NC1CCCC1)c1ccc(N2CCC(NCc3cccc(C(F)(F)F)c3)CC2)cc1,Relative Growth,Saccharomyces cerevisiae [1],0.09
same,Relative Growth,Saccharomyces cerevisiae [2],-0.054
same,Relative Growth,Saccharomyces cerevisiae [3],-0.7428
CCOc1cc(Br)c(C(C)NC(=O)c2cccc(OC)c2)cc1OCC (stereo not given),Relative Growth,Saccharomyces cerevisiae [1],0.0654
same,Relative Growth,Saccharomyces cerevisiae [2],-0.0511
same,Relative Growth,Saccharomyces cerevisiae [3],-0.5924
CC(C)=CCN1CCC(C(=O)Nc2ccc(-c3nc4ccccc4[nH]3)cc2)CC1,Relative Growth,Saccharomyces cerevisiae [1],-0.0484
same,Relative Growth,Saccharomyces cerevisiae [2],0.0091
same,Relative Growth,Saccharomyces cerevisiae [3],0.1138
CCN(CC)CCn1c(=N)n(CC(O)c2ccc(Cl)c(Cl)c2)c2ccccc21.Cl (stereo not given),Relative Growth,Saccharomyces cerevisiae [1],-0.0663
same,Relative Growth,Saccharomyces cerevisiae [2],0.0285
same,Relative Growth,Saccharomyces cerevisiae [3],0.1274
CCOc1cc(Cl)c(C(C)NC(=O)c2cccc(OC)c2)cc1OCC (stereo not given),Relative Growth,Saccharomyces cerevisiae [1],-0.0293
same,Relative Growth,Saccharomyces cerevisiae [2],-0.1186
same,Relative Growth,Saccharomyces cerevisiae [3],-0.0623
O=C(CCc1ccco1)NC1CCN(CC2(c3ccc(Cl)cc3)CCC2)CC1,Relative Growth,Saccharomyces cerevisiae [1],-0.0017
same,Relative Growth,Saccharomyces cerevisiae [2],0.003
same,Relative Growth,Saccharomyces cerevisiae [3],0.0483
FC(F)(F)c1cccc(Nc2nc(-c3ccccc3)nc3ncccc23)c1,Relative Growth,Saccharomyces cerevisiae [1],0.1402
same,Relative Growth,Saccharomyces cerevisiae [2],-0.0599
same,Relative Growth,Saccharomyces cerevisiae [3],-0.0611
CCN1CCN(c2cc(C)c3cc(NC(=O)c4ccc(OC)c(OC)c4)ccc3n2)CC1,Relative Growth,Saccharomyces cerevisiae [1],-0.0203
same,Relative Growth,Saccharomyces cerevisiae [2],-0.0518
same,Relative Growth,Saccharomyces cerevisiae [3],-0.0282
Cc1ccc(Cl)cc1N1CCN(CCCNC(=O)C2CCN(c3nc4ccccc4[nH]3)CC2)CC1,Relative Growth,Saccharomyces cerevisiae [1],-0.0122
same,Relative Growth,Saccharomyces cerevisiae [2],0.0248
same,Relative Growth,Saccharomyces cerevisiae [3],0.0403
COCCN(C(=O)Cc1cccs1)C(C(=O)NCc1ccc(OC)cc1)c1ccc(C(C)C)cc1 (stereo not given),Relative Growth,Saccharomyces cerevisiae [1],0.0044
same,Relative Growth,Saccharomyces cerevisiae [2],0.0051
same,Relative Growth,Saccharomyces cerevisiae [3],0.2007
CCOc1cc(Cl)c(C(C)NC(=O)c2ccccc2)cc1OCC (stereo not given),Relative Growth,Saccharomyces cerevisiae [1],0.0477
same,Relative Growth,Saccharomyces cerevisiae [2],-0.0221
same,Relative Growth,Saccharomyces cerevisiae [3],-0.1365
O=C(c1ccccc1F)N(Cc1ccc(Cl)cc1)c1ccccn1,Relative Growth,Saccharomyces cerevisiae [1],-0.0537
same,Relative Growth,Saccharomyces cerevisiae [2],0.0025
same,Relative Growth,Saccharomyces cerevisiae [3],-0.0049
COc1ccc(C(=O)Nc2ccc(Cl)cc2C(=O)Nc2ccncc2)cc1,Relative Growth,Saccharomyces cerevisiae [1],-0.2989
same,Relative Growth,Saccharomyces cerevisiae [2],-0.1015
same,Relative Growth,Saccharomyces cerevisiae [3],0.1271
O=C(Nc1ccc(CN2CCOCC2)cc1)c1ccc(-c2ccc(Br)cc2)o1,Relative Growth,Saccharomyces cerevisiae [1],-0.0599
same,Relative Growth,Saccharomyces cerevisiae [2],-0.3783
same,Relative Growth,Saccharomyces cerevisiae [3],-0.1653
CC(=O)NCCc1nc2ccccc2n1Cc1ccc(C(C)C)cc1,Relative Growth,Saccharomyces cerevisiae [1],0.0716
same,Relative Growth,Saccharomyces cerevisiae [2],-0.0851
same,Relative Growth,Saccharomyces cerevisiae [3],0.1937
CN(C)c1ccc(-c2nc3cc(N)ccc3[nH]2)cc1,Relative Growth,Saccharomyces cerevisiae [1],0.2129
same,Relative Growth,Saccharomyces cerevisiae [2],-0.0068
same,Relative Growth,Saccharomyces cerevisiae [3],0.1829
O=C(CSc1ccc2nnc(-c3cccc(F)c3)n2n1)Nc1ccc2c(c1)OCO2,Relative Growth,Saccharomyces cerevisiae [1],-0.0335
same,Relative Growth,Saccharomyces cerevisiae [2],-0.0662
same,Relative Growth,Saccharomyces cerevisiae [3],-0.3285
Cc1c(C)n(Cc2ccc(F)cc2)c2ccc(C(=O)NCc3ccco3)cc12,Relative Growth,Saccharomyces cerevisiae [1],-0.5565
same,Relative Growth,Saccharomyces cerevisiae [2],-0.1235
same,Relative Growth,Saccharomyces cerevisiae [3],-1.0264
CCCC(c1nnnn1C1CCCCC1)N1CCN(C(=O)c2ccco2)CC1.Cl (stereo not given),Relative Growth,Saccharomyces cerevisiae [1],-0.0604
same,Relative Growth,Saccharomyces cerevisiae [2],0.0714
same,Relative Growth,Saccharomyces cerevisiae [3],0.0167
CC(C)(C)C(=O)Nc1ccc(C(=O)Nc2cccc(-c3nc4ccccc4[nH]3)c2)cc1,Relative Growth,Saccharomyces cerevisiae [1],0.0628
same,Relative Growth,Saccharomyces cerevisiae [2],-0.1639
same,Relative Growth,Saccharomyces cerevisiae [3],-0.4785
COc1ccc(-c2nonc2NC(=O)c2cccc(C)c2)cc1OC,Relative Growth,Saccharomyces cerevisiae [1],-0.0571
same,Relative Growth,Saccharomyces cerevisiae [2],0.0614
same,Relative Growth,Saccharomyces cerevisiae [3],-0.0764
COc1cccc(-c2nn(C)c3sc(C(=O)NCCN4CCN(c5ccccc5F)CC4)cc23)c1,Relative Growth,Saccharomyces cerevisiae [1],0.1401
same,Relative Growth,Saccharomyces cerevisiae [2],-0.0156
same,Relative Growth,Saccharomyces cerevisiae [3],0.0691
Cc1ccc(CN2CCC(C(=O)Nc3ccc(-c4cc5ccccc5[nH]4)cc3)CC2)o1,Relative Growth,Saccharomyces cerevisiae [1],0.0612
same,Relative Growth,Saccharomyces cerevisiae [2],-0.0113
same,Relative Growth,Saccharomyces cerevisiae [3],-0.0247
Cc1cc(C)c2nc(N3CCC(C(=O)NCCCN4CCC(N5CCCCC5)CC4)CC3)sc2c1,Relative Growth,Saccharomyces cerevisiae [1],-0.0409
same,Relative Growth,Saccharomyces cerevisiae [2],-0.0696
same,Relative Growth,Saccharomyces cerevisiae [3],-0.0414
CCn1c(SCC(=O)Nc2cc(C(F)(F)F)ccc2Cl)nc2ccccc2c1=O,Relative Growth,Saccharomyces cerevisiae [1],-0.0109
same,Relative Growth,Saccharomyces cerevisiae [2],-0.0156
same,Relative Growth,Saccharomyces cerevisiae [3],-0.159
Cc1ccc(Cn2c(N3CCC(C(=O)NCc4cccs4)CC3)nc3ccccc32)cc1,Relative Growth,Saccharomyces cerevisiae [1],-0.105
same,Relative Growth,Saccharomyces cerevisiae [2],-0.0044
same,Relative Growth,Saccharomyces cerevisiae [3],-0.1621
O=C(Nc1ccc(Cl)cc1C(=O)Nc1ccncc1)c1ccc(Cl)cc1Cl,Relative Growth,Saccharomyces cerevisiae [1],0.0512
same,Relative Growth,Saccharomyces cerevisiae [2],0.0109
same,Relative Growth,Saccharomyces cerevisiae [3],-0.1824
CC(C)(C)c1ccc(C(=O)Nc2nc3ccccc3s2)cc1,Relative Growth,Saccharomyces cerevisiae [1],-0.132
same,Relative Growth,Saccharomyces cerevisiae [2],-0.0029
same,Relative Growth,Saccharomyces cerevisiae [3],-0.4045
CCOc1cccc2sc(N(Cc3cccnc3)C(=O)C3CCCCC3)nc12,Relative Growth,Saccharomyces cerevisiae [1],-0.0327
same,Relative Growth,Saccharomyces cerevisiae [2],-0.0544
same,Relative Growth,Saccharomyces cerevisiae [3],-0.3394
COc1ccc(C2N(C)c3ccccc3N2C)cc1,Relative Growth,Saccharomyces cerevisiae [1],-0.0039
same,Relative Growth,Saccharomyces cerevisiae [2],-0.0194
same,Relative Growth,Saccharomyces cerevisiae [3],0.0867
CCN(CC)c1cc(C)c2cc(NC(=O)c3cccc(OC)c3)ccc2n1,Relative Growth,Saccharomyces cerevisiae [1],0.0048
same,Relative Growth,Saccharomyces cerevisiae [2],-0.0149
same,Relative Growth,Saccharomyces cerevisiae [3],0.0148
CC(C)(C)CC(C)(C)NCC(O)COc1ccc2c(c1)CCC2.Cl (stereo not given),Relative Growth,Saccharomyces cerevisiae [1],-0.08
same,Relative Growth,Saccharomyces cerevisiae [2],-0.0891
same,Relative Growth,Saccharomyces cerevisiae [3],-0.1886
CC(C)OCc1cc(CN2CCN(c3cccc(Cl)c3)CC2)c(O)c2ncccc12,Relative Growth,Saccharomyces cerevisiae [1],-1.0115
same,Relative Growth,Saccharomyces cerevisiae [2],-0.1654
same,Relative Growth,Saccharomyces cerevisiae [3],-0.1438
O=C(Nc1nc(-c2ccccn2)cs1)c1ccccc1Br,Relative Growth,Saccharomyces cerevisiae [1],0.0205
same,Relative Growth,Saccharomyces cerevisiae [2],-0.0666
same,Relative Growth,Saccharomyces cerevisiae [3],0.1503
O=C(Nc1ccc(F)c(Cl)c1)Nc1ccc(Cl)c(Cl)c1,Relative Growth,Saccharomyces cerevisiae [1],-0.0686
same,Relative Growth,Saccharomyces cerevisiae [2],0.0832
same,Relative Growth,Saccharomyces cerevisiae [3],-0.9478
CC(O)(c1ccc(Cl)cc1)C(CN1CCCCC1)c1ccccc1.Cl (stereo not given),Relative Growth,Saccharomyces cerevisiae [1],0.0259
same,Relative Growth,Saccharomyces cerevisiae [2],-0.0009
same,Relative Growth,Saccharomyces cerevisiae [3],0.0803
CCCCc1ccc(NS(=O)(=O)c2cc3c4c(c2)CCN4C(=O)CC3)cc1,Relative Growth,Saccharomyces cerevisiae [1],-0.0323
same,Relative Growth,Saccharomyces cerevisiae [2],-0.0346
same,Relative Growth,Saccharomyces cerevisiae [3],0.0701
CCOc1ccccc1CNC(=O)C1c2ccccc2C(=O)N(CC(C)C)C1c1cccs1 (stereo not given),Relative Growth,Saccharomyces cerevisiae [1],-0.0674
same,Relative Growth,Saccharomyces cerevisiae [2],0.0472
same,Relative Growth,Saccharomyces cerevisiae [3],-0.1153
COc1ccccc1N1CCN(C(CNS(=O)(=O)c2ccc(Cl)cc2)c2cccnc2)CC1 (stereo not given),Relative Growth,Saccharomyces cerevisiae [1],-0.173
same,Relative Growth,Saccharomyces cerevisiae [2],-0.1378
same,Relative Growth,Saccharomyces cerevisiae [3],-0.6721
CCOc1c(Cl)cc(CNC(C)C(O)c2ccccc2)cc1OC (stereo not given),Relative Growth,Saccharomyces cerevisiae [1],-0.0562
same,Relative Growth,Saccharomyces cerevisiae [2],-0.05
same,Relative Growth,Saccharomyces cerevisiae [3],0.1383
COc1ccc(C2Sc3ccccc3N=C3C2=C(O)c2ccccc23)cc1 (stereo not given),Relative Growth,Saccharomyces cerevisiae [1],0.0982
same,Relative Growth,Saccharomyces cerevisiae [2],-0.0473
same,Relative Growth,Saccharomyces cerevisiae [3],0.0327
CN1c2ccccc2N(C)C1c1ccc2c(c1)OCO2,Relative Growth,Saccharomyces cerevisiae [1],0.0103
same,Relative Growth,Saccharomyces cerevisiae [2],-0.0051
same,Relative Growth,Saccharomyces cerevisiae [3],0.1265
O=C(NCC1Cc2cccc(-c3ccncc3)c2O1)c1csc2c1CCCC2 (stereo not given),Relative Growth,Saccharomyces cerevisiae [1],0.0158
same,Relative Growth,Saccharomyces cerevisiae [2],0.0203
same,Relative Growth,Saccharomyces cerevisiae [3],0.1029
C=C(C)CCC(C)N1CCC(N2CCC(C(=O)NCCc3ccccc3)CC2)CC1 (stereo not given),Relative Growth,Saccharomyces cerevisiae [1],-0.0567
same,Relative Growth,Saccharomyces cerevisiae [2],0.0261
same,Relative Growth,Saccharomyces cerevisiae [3],-0.0755
